Experimental data: ChEMBL document CHEMBL1201862, “PubChem BioAssay data set” (2004)
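How tested: cells in 96-well plates exposed to compound for 48 hours at five concentrations. GI50 marks 50% less growth.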 Activity calls are given as the source filed them. Rule as the data show it: active = GI50 up to about 1.1 µM and inactive = higher.

Columns and labels:
Assay in all cases: NCI anticancer screen, dose series, 48 h
NCI-H460 = system: NCI-H460
HCC 2998 = system: HCC 2998
KM-20L2 = system: KM-20L2
SK-MEL-28 = system: SK-MEL-28
OVCAR-8 = system: OVCAR-8
A498 = system: A498
786-0 = system: 786-0
DMS-114 = system: DMS-114
K562 = system: K562
KM12 = system: KM12
XF498 = system: XF498
SK-OV-3 = system: SK-OV-3
M19-MEL = system: M19-MEL
SNB-75 = system: SNB-75
Malme-3M = system: Malme-3M
UACC-257 = system: UACC-257
RPMI-8226 = system: RPMI-8226
HOP-92 = system: HOP-92
LOX IMVI = system: LOX IMVI
HL-60 = system: HL-60
SNB-78 = system: SNB-78
SF-295 = system: SF-295
OVCAR-4 = system: OVCAR-4
U-251 = system: U-251
MOLT-4 = system: MOLT-4
RXF 393 = system: RXF 393
SF-268 = system: SF-268
DLD-1 = system: DLD-1
UO-31 = system: UO-31
SNB-19 = system: SNB-19
LXFL 529 = system: LXFL 529
SN12C = system: SN12C
HT-29 = system: HT-29
A549 = system: A549
SF-539 = system: SF-539
M14 = system: M14
COLO 205 = system: COLO 205
CCRF-CEM = system: CCRF-CEM
DMS-273 = system: DMS-273
CAKI-1 = system: CAKI-1
SK-MEL-2 = system: SK-MEL-2
SW-620 = system: SW-620
UACC-62 = system: UACC-62
HOP-18 = system: HOP-18
HCT-15 = system: HCT-15
TK-10 = system: TK-10
IGROV-1 = system: IGROV-1
NCI-H23 = system: NCI-H23
OVCAR-5 = system: OVCAR-5
NCI-H522 = system: NCI-H522
ACHN = system: ACHN
OVCAR-3 = system: OVCAR-3
HOP-62 = system: HOP-62
EKVX = system: EKVX
SK-MEL-5 = system: SK-MEL-5
SR = system: SR
NCI-H226 = system: NCI-H226
HCT-116 = system: HCT-116

Structure (SMILES): COC(=O)CCC(=O)Nc1cccc(C(F)(F)F)c1
- GI50 (NCI-H460): > 100 µM (inactive)
- GI50 (HCC 2998): > 100 µM (inactive)
- GI50 (KM-20L2): > 100 µM (inactive)
- GI50 (SK-MEL-28): > 100 µM (inactive)
- GI50 (OVCAR-8): > 100 µM (inactive)
- GI50 (A498): > 100 µM (inactive)
- GI50 (786-0): > 100 µM (inactive)
- GI50 (DMS-114): > 100 µM (inactive)
- GI50 (K562): > 100 µM (inactive)
- GI50 (KM12): > 100 µM (inactive)
- GI50 (XF498): > 100 µM (inactive)
- GI50 (SK-OV-3): > 100 µM (inactive)
- GI50 (M19-MEL): > 100 µM (inactive)
- GI50 (SNB-75): > 74.1 µM (inactive)
- GI50 (Malme-3M): > 100 µM (inactive)
- GI50 (UACC-257): > 100 µM (inactive)
- GI50 (RPMI-8226): > 100 µM (inactive)
- GI50 (HOP-92): > 100 µM (inactive)
- GI50 (LOX IMVI): > 100 µM (inactive)
- GI50 (HL-60): > 100 µM (inactive)
- GI50 (SNB-78): > 100 µM (inactive)
- GI50 (SF-295): > 100 µM (inactive)
- GI50 (OVCAR-4): > 100 µM (inactive)
- GI50 (U-251): > 100 µM (inactive)
- GI50 (MOLT-4): > 100 µM (inactive)
- GI50 (RXF 393): > 100 µM (inactive)
- GI50 (SF-268): > 100 µM (inactive)
- GI50 (DLD-1): > 100 µM (inactive)
- GI50 (UO-31): > 100 µM (inactive)
- GI50 (SNB-19): > 100 µM (inactive)
- GI50 (LXFL 529): > 100 µM (inactive)
- GI50 (SN12C): > 100 µM (inactive)
- GI50 (HT-29): > 100 µM (inactive)
- GI50 (A549): > 100 µM (inactive)
- GI50 (SF-539): > 100 µM (inactive)
- GI50 (M14): > 100 µM (inactive)
- GI50 (COLO 205): > 100 µM (inactive)
- GI50 (CCRF-CEM): > 100 µM (inactive)
- GI50 (DMS-273): > 100 µM (inactive)
- GI50 (CAKI-1): > 100 µM (inactive)
- GI50 (SK-MEL-2): > 100 µM (inactive)
- GI50 (SW-620): > 100 µM (inactive)
- GI50 (UACC-62): > 100 µM (inactive)
- GI50 (HOP-18): > 100 µM (inactive)
- GI50 (HCT-15): > 100 µM
- GI50 (TK-10): > 100 µM (inactive)
- GI50 (IGROV-1): > 100 µM (inactive)
- GI50 (NCI-H23): > 100 µM (inactive)
- GI50 (OVCAR-5): > 100 µM (inactive)
- GI50 (NCI-H522): > 100 µM (inactive)
- GI50 (ACHN): > 100 µM (inactive)
- GI50 (OVCAR-3): > 100 µM (inactive)
- GI50 (HOP-62): > 100 µM (inactive)
- GI50 (EKVX): > 100 µM (inactive)
- GI50 (SK-MEL-5): > 100 µM (inactive)

Structure (SMILES): COC12C=C(C)C(CC1)CC2C(=O)O (configuration not stated)
- GI50 (NCI-H460): > 100 µM (inactive)
- GI50 (HCC 2998): > 100 µM (inactive)
- GI50 (KM-20L2): > 100 µM (inactive)
- GI50 (SK-MEL-28): > 100 µM (inactive)
- GI50 (OVCAR-8): > 100 µM (inactive)
- GI50 (A498): > 100 µM (inactive)
- GI50 (786-0): > 100 µM (inactive)
- GI50 (K562): > 100 µM (inactive)
- GI50 (KM12): > 100 µM (inactive)
- GI50 (XF498): > 100 µM (inactive)
- GI50 (SK-OV-3): > 100 µM (inactive)
- GI50 (M19-MEL): > 100 µM (inactive)
- GI50 (SR): > 100 µM (inactive)
- GI50 (SNB-75): > 100 µM (inactive)
- GI50 (Malme-3M): > 100 µM (inactive)
- GI50 (UACC-257): > 100 µM (inactive)
- GI50 (RPMI-8226): > 100 µM (inactive)
- GI50 (HOP-92): > 100 µM (inactive)
- GI50 (LOX IMVI): > 100 µM (inactive)
- GI50 (HL-60): > 100 µM (inactive)
- GI50 (SNB-78): > 100 µM (inactive)
- GI50 (SF-295): > 100 µM (inactive)
- GI50 (OVCAR-4): > 100 µM (inactive)
- GI50 (U-251): > 100 µM (inactive)
- GI50 (NCI-H226): > 100 µM (inactive)
- GI50 (MOLT-4): > 100 µM (inactive)
- GI50 (RXF 393): > 100 µM (inactive)
- GI50 (HCT-116): > 100 µM (inactive)
- GI50 (SF-268): > 100 µM (inactive)
- GI50 (DLD-1): > 100 µM (inactive)
- GI50 (UO-31): > 100 µM (inactive)
- GI50 (SNB-19): > 100 µM (inactive)
- GI50 (LXFL 529): > 100 µM (inactive)
- GI50 (SN12C): > 100 µM (inactive)
- GI50 (HT-29): > 100 µM (inactive)
- GI50 (A549): > 100 µM (inactive)
- GI50 (SF-539): > 100 µM (inactive)
- GI50 (M14): > 100 µM (inactive)
- GI50 (COLO 205): > 100 µM (inactive)
- GI50 (CCRF-CEM): > 100 µM (inactive)
- GI50 (DMS-273): > 100 µM (inactive)
- GI50 (CAKI-1): > 100 µM (inactive)
- GI50 (SK-MEL-2): > 100 µM (inactive)
- GI50 (SW-620): > 100 µM (inactive)
- GI50 (UACC-62): > 100 µM (inactive)
- GI50 (HOP-18): > 100 µM (inactive)
- GI50 (HCT-15): > 100 µM
- GI50 (TK-10): > 100 µM (inactive)
- GI50 (IGROV-1): > 100 µM (inactive)
- GI50 (NCI-H23): > 100 µM (inactive)
- GI50 (OVCAR-5): > 100 µM (inactive)
- GI50 (NCI-H522): > 100 µM (inactive)
- GI50 (ACHN): > 100 µM (inactive)
- GI50 (OVCAR-3): > 100 µM (inactive)
- GI50 (HOP-62): > 100 µM (inactive)
- GI50 (EKVX): > 100 µM (inactive)
- GI50 (SK-MEL-5): > 100 µM (inactive)
